Data reported in patent publication US20250382337A1 (UNIVERSITY OF MIAMI, priority 2022, published 2025).

Tested on: SCI pain
Conditions: in vivo

## NCC1(CC(=O)O)CCCCC1 [gabapentin]
  place preference in GFP (control AAV) SCI animals: induced place preference
